The source of these data is patent US20130217664A1, “NOVEL COMPOUNDS USEFUL FOR THE TREATMENT OF DEGENERATIVE AND INFLAMMATORY DISEASES” (priority 2012, published 2013).

Holding throughout (format): biochemical
For one assay, the target named is T1, human JAK1 (Homo sapiens, UniProt P23458).
T1 construct: catalytic domain, amino acids 866-1154; catalog number PV4774; purchased Invitrogen PV4774
Nature of the assay: JAK1 inhibition assay (polyGT substrate / Ulight-JAK1 peptide). Particulars: recombinant human JAK1 catalytic domain; polyGT or Ulight-JAK1 peptide assay. The essentials:
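Signal scaled between vehicle and 10 μM staurosporine. Radiometric polyGT reactions ran 45 min at 30 °C, counted after phosphoric-acid stop. Ulight peptide reactions ran 60 min at room temperature, fluorescence read after adding Eu-PT66 detection mix with EDTA.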

Another assay addresses T2, human TYK2 (Homo sapiens, UniProt P29597).
T2 construct: catalytic domain (amino acids 871-1187; catalog number 08-147); purchased Carna Biosciences 08-147
T2 sequence (P29597 871-1187): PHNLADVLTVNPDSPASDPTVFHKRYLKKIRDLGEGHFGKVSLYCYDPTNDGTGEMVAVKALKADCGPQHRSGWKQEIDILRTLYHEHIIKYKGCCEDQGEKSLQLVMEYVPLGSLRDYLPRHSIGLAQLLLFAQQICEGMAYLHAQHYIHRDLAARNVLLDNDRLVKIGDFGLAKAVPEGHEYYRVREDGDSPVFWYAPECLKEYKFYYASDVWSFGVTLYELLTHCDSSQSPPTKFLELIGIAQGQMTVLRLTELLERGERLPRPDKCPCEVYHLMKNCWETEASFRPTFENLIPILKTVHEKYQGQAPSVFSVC
Kind of assay: TYK2 inhibition assay. Particulars: recombinant human TYK2 catalytic domain, polyGT substrate. The essentials:
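Radiometric kinase reaction run 90 min at 30 °C, stopped with phosphoric acid, washed and scintillation-counted.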

A further assay deals with T3, human JAK2 (Homo sapiens, UniProt O60674).
T3 construct: catalytic domain (amino acids 808-1132; catalog number PV4210); GST; purchased Invitrogen PV4210
Nature of the assay: JAK2 inhibition assay (polyGT substrate / Ulight-JAK1 peptide). The settings on record: recombinant human JAK2 catalytic domain; polyGT or Ulight-JAK1 peptide assay. The essentials:
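Two JAK2 formats: a ^33P-ATP polyGT assay (1 μM cold ATP, 90 min, 30° C., cpm read-out) and a Ulight-JAK1 peptide assay read by Europium-anti-phosphotyrosine fluorescence after 60 min at room temperature.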

The structures appear in SMILES notation.

T1 sequence (P23458 866-1154): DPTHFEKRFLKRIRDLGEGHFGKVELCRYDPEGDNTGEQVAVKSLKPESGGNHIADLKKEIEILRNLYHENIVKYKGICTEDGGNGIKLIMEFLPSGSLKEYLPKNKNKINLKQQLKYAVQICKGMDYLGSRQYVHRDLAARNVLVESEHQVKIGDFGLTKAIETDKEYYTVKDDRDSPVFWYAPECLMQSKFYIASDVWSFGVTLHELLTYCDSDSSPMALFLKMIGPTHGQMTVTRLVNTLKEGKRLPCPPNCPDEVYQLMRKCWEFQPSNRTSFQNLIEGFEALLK
T3 sequence (O60674 808-1132): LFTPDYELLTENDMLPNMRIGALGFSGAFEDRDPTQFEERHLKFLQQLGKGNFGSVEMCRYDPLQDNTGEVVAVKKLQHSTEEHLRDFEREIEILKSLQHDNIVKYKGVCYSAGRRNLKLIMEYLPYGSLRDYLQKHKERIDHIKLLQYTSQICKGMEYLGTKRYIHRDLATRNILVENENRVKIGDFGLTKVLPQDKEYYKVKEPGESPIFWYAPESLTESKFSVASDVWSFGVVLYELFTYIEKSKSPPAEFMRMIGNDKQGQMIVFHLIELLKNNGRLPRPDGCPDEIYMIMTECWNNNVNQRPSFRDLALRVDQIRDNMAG

As for `Cc1cc(-c2cn[nH]c2)ccc1N(C)c1cc2c(cn1)ncn2C` [Compound 71, N,1-Dimethyl-N-(2-methyl-4-(1H-pyrazol-4-yl)phenyl)-1H-imidazo[4,5-c]pyridin-6-amine], the IC50 was 0.01 to 100 nM on human JAK1, 0.01 to 100 nM at human TYK2 and 101 to 500 nM on human JAK2.
Regarding `Cc1cc(-c2cncnc2)ccc1N(C)c1cc2c(cn1)ncn2C` [Compound 72, N,1-dimethyl-N-(2-methyl-4-(pyrimidin-5-yl)phenyl)-1H-imidazo[4,5-c]pyridin-6-amine], the IC50 was 101 to 500 nM at human JAK1, 501 to 1000 nM at human TYK2 and greater than 1000 nM at human JAK2.
For `Cc1cc(-c2cnn(C)c2)ccc1N(C)c1cc2c(cn1)ncn2C` [Compound 73, N,1-dimethyl-N-(2-methyl-4-(1-methyl-1H-pyrazol-4-yl)phenyl)-1H-imidazo[4,5-c]pyridin-6-amine], in that order: 0.01 to 100 nM, 101 to 500 nM and 501 to 1000 nM.
In the case of `CCc1cc(C(=O)OC)ccc1N(C)c1cc2c(cn1)ncn2C` [Compound 80, Methyl 3-ethyl-4-(methyl(1-methyl-1H-imidazo[4,5-c]pyridin-6-yl)amino)benzoate], the IC50 on human JAK1 is 0.01 to 100 nM; on human TYK2, 101 to 500 nM; at human JAK2, 101 to 500 nM.
On to `CCc1cc(CO)ccc1N(C)c1cc2c(cn1)ncn2C` [Compound 81, (3-Ethyl-4-(methyl(1-methyl-1H-imidazo[4,5-c]pyridin-6-yl)amino)phenyl)MeOH], for which the IC50 on human JAK1 is 0.01 to 100 nM; on human TYK2 it was 0.01 to 100 nM; on human JAK2, 101 to 500 nM.
For `CCc1ccc(C#N)cc1N(C)c1cc2c(cn1)ncn2C` [Compound 83, 4-ethyl-3-(methyl(1-methyl-1H-imidazo[4,5-c]pyridin-6-yl)amino)benzonitrile], the IC50 on human JAK1 lay in the range of 0.01 to 100 nM; at human TYK2 it was 101 to 500 nM; at human JAK2, 101 to 500 nM.
With `CCc1ccc(F)cc1N(C)c1cc2c(cn1)ncn2C` [Compound 84, N-(2-ethyl-5-fluorophenyl)-N,1-dimethyl-1H-imidazo[4,5-c]pyridin-6-amine], the IC50 lay within 0.01 to 100 nM at human JAK1, 101 to 500 nM at human TYK2 and 101 to 500 nM at human JAK2.
On to `CCc1cc(C(=O)NC)ccc1N(C)c1cc2c(cn1)ncn2C` [Compound 85], for which the IC50 at human JAK1 was in the range of 0.01 to 100 nM; on human TYK2 it was 101 to 500 nM; at human JAK2, 501 to 1000 nM.
On the same counts, the results for `CCc1cc(C(=O)NCCC#N)ccc1N(C)c1cc2c(cn1)ncn2C` [Compound 86, N-(2-Cyanoethyl)-3-ethyl-4-(methyl(1-methyl-1H-imidazo[4,5-c]pyridin-6-yl)amino)benzamide] are 0.01 to 100 nM, 501 to 1000 nM and 501 to 1000 nM.
On the same counts, the results for `Cc1ccc(Oc2ccc(C#N)nc2)cc1N(C)c1cc2c(cn1)ncn2C` [Compound 91, 5-(4-methyl-3-(methyl(1-methyl-1H-imidazo[4,5-c]pyridin-6-yl)amino)phenoxy)picolino-nitrile] are 0.01 to 100 nM, greater than 1000 nM and greater than 1000 nM.
Take `CCc1cc(-c2cnn(C)c2)ccc1N(C)c1cc2c(cn1)ncn2C` [Compound 93, N-(2-Ethyl-4-(1-methyl-1H-pyrazol-4-yl)phenyl)-N,1-dimethyl-1H-imidazo[4,5-d]pyridin-6-amine]: the IC50 on human JAK1, on human TYK2 and at human JAK2 was 0.01 to 100 nM each time.
With `CCc1cc(-c2cccnc2)ccc1N(C)c1cc2c(cn1)ncn2C` [Compound 94, N-(2-ethyl-4-(pyridin-3-yl)phenyl)-N,1-dimethyl-1H-imidazo[4,5-c]pyridin-6-amine], the IC50 on human JAK1 is 0.01 to 100 nM; at human TYK2, 0.01 to 100 nM; at human JAK2 it was 101 to 500 nM.
As to `CCc1cc(-c2cncnc2)ccc1N(C)c1cc2c(cn1)ncn2C` [Compound 95, N-(2-ethyl-4-(pyrimidin-5-yl)phenyl)-N,1-dimethyl-1H-imidazo[4,5-c]pyridin-6-amine], the IC50 at human JAK1 lay in the range of 0.01 to 100 nM; at human TYK2, 0.01 to 100 nM; at human JAK2, 101 to 500 nM.
As for `CCc1cc(C(=O)NCc2ccccc2)ccc1N(C)c1cc2c(cn1)ncn2C` [Compound 98, N-benzyl-3-ethyl-4-(methyl(1-methyl-1H-imidazo[4,5-c]pyridin-6-yl)amino)benzamide], the half-inhibitory concentration (IC50) on human JAK1 lay in the range of 0.01 to 100 nM; at human TYK2, 501 to 1000 nM; at human JAK2, 501 to 1000 nM.
As to `CCc1cc(C(C)O)ccc1N(C)c1cc2c(cn1)ncn2C` (stereo not drawn) [Compound 101, 1-(3-Ethyl-4-(methyl(1-methyl-1H-imidazo[4,5-c]pyridin-6-yl)amino)phenyl)ethanol], the IC50 at human JAK1, at human TYK2 and at human JAK2 was 0.01 to 100 nM each time.
For `CCNC(=O)c1ccc(N(C)c2cc3c(cn2)ncn3C)c(CC)c1` [Compound 102, N,3-diethyl-4-(methyl(1-methyl-1H-imidazo[4,5-c]pyridin-6-yl)amino)benzamide], the values for the IC50 at human JAK1, on human TYK2 and at human JAK2 were 0.01 to 100 nM, 101 to 500 nM and greater than 1000 nM, respectively.
`CCc1cc(C(C)(C)O)ccc1N(C)c1cc2c(cn1)ncn2C` [Compound 103, 2-(3-Ethyl-4-(methyl(1-methyl-1H-imidazo[4,5-c]pyridin-6-yl)amino)phenyl)propan-2-ol]: the 50% inhibitory concentration (IC50) at human JAK1 is 0.01 to 100 nM; at human TYK2 it was 0.01 to 100 nM; at human JAK2, 101 to 500 nM.
Take `CCc1cc(COC)ccc1N(C)c1cc2c(cn1)ncn2C` [Compound 105, N-(2-Ethyl-4-(methoxymethyl)phenyl)-N,1-dimethyl-1H-imidazo[4,5-c]pyridin-6-amine]: the IC50 on human JAK1 lay in the range of 0.01 to 100 nM; at human TYK2, 0.01 to 100 nM; on human JAK2 it was 101 to 500 nM.
Regarding `CCc1cc(O)ccc1N(C)c1cc2c(cn1)ncn2C` [Compound 107, 3-ethyl-4-(methyl(1-methyl-1H-imidazo[4,5-c]pyridin-6-yl)amino)phenol], the IC50 at human JAK1, at human TYK2 and on human JAK2 was 0.01 to 100 nM in each case.
For `CCc1cc(OC2CCN(S(C)(=O)=O)C2)ccc1N(C)c1cc2c(cn1)ncn2C` (stereo not drawn) [Compound 110, N-(2-Ethyl-4-((1-(methylsulfonyl)pyrrolidin-3-yl)oxy)phenyl)-N,1-dimethyl-1H-imidazo[4,5-c]pyridin-6-amine], the IC50 is 0.01 to 100 nM on human JAK1, 0.01 to 100 nM on human TYK2 and 101 to 500 nM on human JAK2.
`CCc1cc(Cn2ccnc2)ccc1N(C)c1cc2c(cn1)ncn2C` [Compound 111, N-(4-((1H-imidazol-1-yl)methyl)-2-ethylphenyl)-N,1-dimethyl-1H-imidazo[4,5-c]pyridin-6-amine]: the IC50 at human JAK1 lay within 0.01 to 100 nM; at human TYK2 it was 101 to 500 nM; on human JAK2, 101 to 500 nM.
With `CCc1cc(-c2ccc(C#N)nc2)ccc1N(C)c1cc2c(cn1)ncn2C` [Compound 114, 5-(3-ethyl-4-(methyl(1-methyl-1H-imidazo[4,5-c]pyridin-6-yl)amino)phenyl)picolino-nitrile], the IC50 on human JAK1 lay in the range of 0.01 to 100 nM; at human TYK2, 0.01 to 100 nM; at human JAK2 it was 101 to 500 nM.
With `CCc1cc(-c2cnc(NC(C)=O)nc2)ccc1N(C)c1cc2c(cn1)ncn2C` [Compound 115, N-(5-(3-Ethyl-4-(methyl(1-methyl-1H-imidazo[4,5-c]pyridin-6-yl)amino)phenyl)pyrimidin-2-yl)acetamide], the values for the IC50 at human JAK1, on human TYK2 and at human JAK2 were 0.01 to 100 nM, 0.01 to 100 nM and 101 to 500 nM, respectively.
